Measured values published in patent publication US7273863B1, “Benzophenones as inhibitors of reverse transcriptase” (SmithKline Beecham Corporation, priority 1999, dated 2007).

Columns and labels:
Experiment in all cases: HeLa cell assay (HIV-LTR β-galactosidase reporter)
WTRVA = assay type: cell-based, HIV-1; settings: Human immunodeficiency virus 1, Virus Type WTRVA, read-out: IC50 (nM) Range
Procedure: (§1) The HeLa cell assay was performed according to a modification of Kimpton J. and Emerman M., Detection of replication-competent and pseudotyped human immunodeficiency virus with a sensitive cell line on the basis of activation of an integrated β-galactosidase gene, J. Virol. 66:2232-2239 (1992), in which HIV-1 infection is detected by the activation of an HIV-LTR driven β-galactosidase reporter that is integrated into the genome of a CD4^+ HeLa cell line. Quantitation of β-galactosidase is achieved by measuring the activation of a chemiluminescent substrate (Tropix). The concentration of each compound required to inhibit 50% (IC50) of the HIV-1 induced β-galactosidase signal, relative to untreated controls, was determined for each isogenic, recombinant virus.
(§2) HeLa-CD4-LTR-β-gal cells were obtained from the NIH AIDS Research and Reference Reagent Program. Cells were propagated in DMEM containing 10% fetal bovine serum, 0.2 mg/ml geneticin and 0.1 mg/ml hygromycin B. Cells were routinely split by trypsinization when confluency reached 80% (approximately every 2 to 3 days).
(§3) DNA encoding the HIV-1 reverse transcriptase was subcloned from a M13 phage into a general shuttle vector, pBCSK+, as a ˜1.65 kbp EcoRI/HindIII ended DNA fragment. The HIV DNA insert of the resulting plasmid, pRT2, was completely sequenced on both strands prior to use in site directed mutagenesis experiments. Specific amino acid replacements were made using Stratagene Quick Change reagents and mutagenic oligonucleotides from Oligos. Following mutagenesis, the entire mutant RT coding sequence was verified by sequencing both DNA strands.
(§4) Mutant HIV-1 strains were isolated by a modified Recombinant Virus Assay (Kellam P. and Larder B., Recombinant virus assay: a rapid, phenotypic assay for assessment of drug susceptibility of human immunodeficiency virus type 1 isolates, Antimicrobial Agents and Chemotherapy, 38:23-30, 1994). 1×10^7 Jurkat T-cells (maintained in RPMI containing 10% fetal bovine serum, split 1:5 every 5 to 6 days) were co-transfected with EcoRI/HindIII digested mutant RT plasmid and Bst EII-digested HIV-1HXB2ΔRT DNA in the presence of DMRIE-C transfection reagent (Gibco) according to supplier's recommended protocol. Each mutant RT coding sequence was crossed into the RT-deleted HIV-1 viral DNA backbone by in vivo homologous recombination. Transfected cell cultures were expanded and monitored until syncitia formation and CPE were extensive. Virus was harvested by clear spin of the culture supernatants and frozen at −80 C as primary stock. Recombinant progeny virus was sequenced in the RT region to confirm the mutant genotype. Virus stocks were further expanded by infection of Jurkat cells, harvested and stored as frozen aliquots. Stocks were titered in HeLa MAGI cells for assay.
(§5) The HIV-1HXB2 mutants were titered in the HeLa MAGI assay system to determine the relative light units (RLU) per ml, a measure of infectivity relevant for this assay system. Virus stocks were diluted in a 2-fold series into DMEM containing 10% fetal bovine serum plus 20 ug/ml DEAE-dextran and assayed as described in the Experimental Protocol section, below.
(§6) 96-well microtiter plate(s) (Costar #3598) were seeded with 3×10^3 HeLa-CD4-LTR-β-gal in 100 μl DMEM containing 10% fetal bovine serum. Plates were placed in a 37° C., 5% CO2 humidified incubator overnight. The following day, mutant virus stocks were thawed in a room temperature water bath and diluted into DMEM containing 10% fetal bovine serum and 20 μg/ml DEAE-dextran to achieve an input of 1500 to 2000 RLU/ml. All media was removed with an 8 channel manifold aspirator and 35 μl (50 to 70 total RLUs) of diluted virus was added to each well for virus adsorption. Plates were placed in a 37° C., 5% CO2 humidified incubator for 1.5 to 2 hours.
(§7) Compound titration plates were prepared at 1.35× final concentration during the virus adsorption period. […]

[1] = system: isogenic HIV-1 RT mutant virus E138K; assay type: cell-based; settings: Human immunodeficiency virus 1, HeLa, read-out: IC50 (nM) Range
Procedure: as §1, §2, §3, §4, §5, §6, §7

[2] = system: isogenic HIV-1 RT mutant virus G190A; assay type: cell-based; settings: Human immunodeficiency virus 1, HeLa, read-out: IC50 (nM) Range
Procedure: as §1, §2, §3, §4, §5, §6, §7

[3] = system: isogenic HIV-1 RT mutant virus G190E; assay type: cell-based; settings: Human immunodeficiency virus 1, HeLa, read-out: IC50 (nM) Range
Procedure: as §1, §2, §3, §4, §5, §6, §7

[4] = system: isogenic HIV-1 RT mutant virus K101E; assay type: cell-based; settings: Human immunodeficiency virus 1, HeLa, read-out: IC50 (nM) Range
Procedure: as §1, §2, §3, §4, §5, §6, §7

[5] = system: isogenic HIV-1 RT mutant virus K103N/G190A; assay type: cell-based; settings: Human immunodeficiency virus 1, HeLa, read-out: IC50 (nM) Range
Procedure: as §1, §2, §3, §4, §5, §6, §7

[6] = system: isogenic HIV-1 RT mutant virus K103N/L1001; assay type: cell-based; settings: Human immunodeficiency virus 1, HeLa, read-out: IC50 (nM) Range
Procedure: as §1, §2, §3, §4, §5, §6, §7

[7] = system: isogenic HIV-1 RT mutant virus K103N/P225H; assay type: cell-based; settings: Human immunodeficiency virus 1, HeLa, read-out: IC50 (nM) Range
Procedure: as §1, §2, §3, §4, §5, §6, §7

[8] = system: isogenic HIV-1 RT mutant virus K103N/V108I; assay type: cell-based; settings: Human immunodeficiency virus 1, HeLa, read-out: IC50 (nM) Range
Procedure: as §1, §2, §3, §4, §5, §6, §7

[9] = system: isogenic HIV-1 RT mutant virus K103N/Y181C; assay type: cell-based; settings: Human immunodeficiency virus 1, HeLa, read-out: IC50 (nM) Range
Procedure: as §1, §2, §3, §4, §5, §6, §7

[10] = system: isogenic HIV-1 RT mutant virus K103N; assay type: cell-based; settings: Human immunodeficiency virus 1, HeLa, read-out: IC50 (nM) Range
Procedure: as §1, §2, §3, §4, §5, §6, §7

[11] = system: isogenic HIV-1 RT mutant virus L100I; assay type: cell-based; settings: Human immunodeficiency virus 1, HeLa, read-out: IC50 (nM) Range
Procedure: as §1, §2, §3, §4, §5, §6, §7

[12] = system: isogenic HIV-1 RT mutant virus P225H; assay type: cell-based; settings: Human immunodeficiency virus 1, HeLa, read-out: IC50 (nM) Range
Procedure: as §1, §2, §3, §4, §5, §6, §7

[13] = system: isogenic HIV-1 RT mutant virus P236L; assay type: cell-based; settings: Human immunodeficiency virus 1, HeLa, read-out: IC50 (nM) Range
Procedure: as §1, §2, §3, §4, §5, §6, §7

[14] = system: isogenic HIV-1 RT mutant virus V106A/Y181C; assay type: cell-based; settings: Human immunodeficiency virus 1, HeLa, read-out: IC50 (nM) Range
Procedure: as §1, §2, §3, §4, §5, §6, §7

[15] = system: isogenic HIV-1 RT mutant virus V106A; assay type: cell-based; settings: Human immunodeficiency virus 1, HeLa, read-out: IC50 (nM) Range
Procedure: as §1, §2, §3, §4, §5, §6, §7

[16] = system: isogenic HIV-1 RT mutant virus V108I/Y181C; assay type: cell-based; settings: Human immunodeficiency virus 1, HeLa, read-out: IC50 (nM) Range
Procedure: as §1, §2, §3, §4, §5, §6, §7

[17] = system: isogenic HIV-1 RT mutant virus V108I; assay type: cell-based; settings: Human immunodeficiency virus 1, HeLa, read-out: IC50 (nM) Range
Procedure: as §1, §2, §3, §4, §5, §6, §7

[18] = system: isogenic HIV-1 RT mutant virus Y181C; assay type: cell-based; settings: Human immunodeficiency virus 1, HeLa, read-out: IC50 (nM) Range
Procedure: as §1, §2, §3, §4, §5, §6, §7

[19] = system: isogenic HIV-1 RT mutant virus Y188C; assay type: cell-based; settings: Human immunodeficiency virus 1, HeLa, read-out: IC50 (nM) Range
Procedure: as §1, §2, §3, §4, §5, §6, §7

[20] = system: isogenic HIV-1 RT mutant virus V106I/Y181C; assay type: cell-based; settings: Human immunodeficiency virus 1, HeLa, read-out: IC50 (nM) Range
Procedure: as §1, §2, §3, §4, §5, §6, §7

[21] = system: isogenic HIV-1 RT mutant virus V106I; assay type: cell-based; settings: Human immunodeficiency virus 1, HeLa, read-out: IC50 (nM) Range
Procedure: as §1, §2, §3, §4, §5, §6, §7

| SMILES | IC50 (WTRVA) [nM] | IC50 [1] [nM] | IC50 [2] [nM] | IC50 [4] [nM] | IC50 [5] [nM] | IC50 [7] [nM] | IC50 [8] [nM] | IC50 [9] [nM] | IC50 [10] [nM] | IC50 [11] [nM] | IC50 [12] [nM] | IC50 [13] [nM] | IC50 [14] [nM] | IC50 [15] [nM] | IC50 [16] [nM] | IC50 [17] [nM] | IC50 [18] [nM] | IC50 [19] [nM] | IC50 [20] [nM] | IC50 [21] [nM] | further results |
| --- | --- | --- | --- | --- | --- | --- | --- | --- | --- | --- | --- | --- | --- | --- | --- | --- | --- | --- | --- | --- | --- |
| Cc1cc(S(N)(=O)=O)ccc1NC(=O)COc1ccc(Cl)cc1C(=O)c1cc(F)cc(C(F)(F)F)c1 [Compound 78] | < 10 | < 10 | < 10 | < 10 | 11 to 100 | < 10 | < 10 | < 10 | < 10 | < 10 | < 10 | < 10 | 11 to 100 | 11 to 100 | 11 to 100 | < 10 | < 10 | < 10 |  |  | IC50 [3]: < 10 nM; IC50 [6]: < 10 nM |
| Cc1cc2cn[nH]c2cc1NC(=O)COc1ccc(Cl)cc1C(=O)c1cccc(C#N)c1 [Compound 453] | < 10 |  | < 10 | < 10 | 11 to 100 | < 10 | < 10 | < 10 | < 10 | < 10 | < 10 | 11 to 100 | 11 to 100 | 101 to 1000 | < 10 | 101 to 1000 | < 10 | < 10 | 11 to 100 | < 10 |  |
| Cc1cc(OCCCS(N)(=O)=O)ccc1NC(=O)COc1ccc(Cl)cc1C(=O)c1cc(F)cc(C(F)(F)F)c1 [Compound 257] | < 10 | < 10 | < 10 | < 10 | 11 to 100 | < 10 | < 10 | < 10 | < 10 | < 10 | < 10 | < 10 | 11 to 100 | 11 to 100 | < 10 | < 10 | < 10 | < 10 | 11 to 100 | < 10 | IC50 [3]: < 10 nM; IC50 [6]: < 10 nM |
| Cc1cc(S(N)(=O)=O)ccc1NC(=O)COc1ccc(Cl)cc1C(=O)c1cc(F)cc(F)c1 [Compound 62] | < 10 | < 10 | < 10 | < 10 | 11 to 100 | < 10 | < 10 | 11 to 100 | < 10 | < 10 | < 10 | 11 to 100 | 11 to 100 | 11 to 100 | < 10 | < 10 | < 10 | < 10 | 11 to 100 | < 10 | IC50 [3]: < 10 nM; IC50 [6]: < 10 nM |
| Cc1cc(S(N)(=O)=O)ccc1NC(=O)COc1ccc(Cl)cc1C(=O)c1cccc(C#N)c1 [Compound 448] |  | < 10 | < 10 | < 10 | 11 to 100 | < 10 | < 10 | 11 to 100 | < 10 | < 10 | < 10 | 11 to 100 | 11 to 100 | 11 to 100 | < 10 | < 10 | < 10 | < 10 | 11 to 100 | < 10 | IC50 [3]: < 10 nM; IC50 [6]: < 10 nM |
| Cc1cc(C#N)cc(C(=O)c2cc(Cl)ccc2OCC(=O)Nc2ccc(OCCCN3CC=CC3)cc2C)c1 [Compound 593] | < 10 |  | < 10 |  | < 10 | < 10 | < 10 | < 10 | < 10 | < 10 | < 10 | < 10 | < 10 |  | < 10 | < 10 | < 10 |  | 11 to 100 | < 10 |  |
